Results: US4049795A, “Treatment of hemorrhagic shock” (priority 1974, dated 1977)

Tests used:
[1] = system: Rabbit atrium; assay: Isolated rabbit atrium; details: rabbit atrium
Excerpt: The technique used for this study was the same as that described above for the ileum of the rabbit, but replacing the ileum with bled rabbit atrium. The preservation liquid used as LOCKE's liquid.

[2] = system: reticulo-endothelial system; assay: Phagocytic activity of the reticulo-endothelial system, carbon clearance (HALPERN); format: in vivo, rabbit; details: FIGS. 3 and 4
Excerpt: That technique is based on the study of the kinetics of the disappearance in the blood of particles of carbon injected into the vein. The kinetics of disappearance follow the equation [formula] in which formula C1 is the concentration of carbon in the blood at time T1 and C2 is the concentration of carbon in the blood at time T2, K being a constant. The constant K, called phagocytic index, represents the phagocytic activity of the cells of the reticule-endothelial system under the experimental conditions. For the tests, the technique and carbon suspension described by […]. Physiol. of Paris, Vol. 50, p. […] The study was done on rabbits of the same stock, male or female, or an average weight of about 2.5 kg, devided into four batches of four animals each. The first batch was used as controls and received, by slow intravenous injection, 10 ml of a 0.8% solution of sodium chloride ten minutes before the injection of 4 mg of carbon per 100 g of animal. […] In all the tests, a total volume of 10 ml was injected with a fairly closely related injection speed (less than five minutes).

[3] = system: glucidic metabolism; assay: Glucidic metabolism under intravenous perfusion in rabbits (lactacidemia, pyruvicemia, glycemia); format: in vivo, rabbit; details: 30 and 60 minutes after perfusion
Method: These tests were carried out on rabbits weighing an average of 2.500 kg.
A trachetomy was carried out under local anaesthesia with procaine. […] A saphenous vein and the two femoral arteries were catheterized under local anaesthesia in order to register the blood pressure by a manometer and to take blood samples; a jugular vein was catheterized to the base of the skull to sample cerebral venous blood.
The results obtained were compared with those obtained following a perfusion carried out in the same way with sodium d,l-lactate at a dose of 40 mg/kg/min.
The glycemia was measured by the enzymatic method in the arterial and cerebral venus blood. The samples were taken before the perfusion, at the end of the perfusion, and at 30 minutes and 60 minutes after perfusion.

[4] = system: Rabbit ileum; assay: Isolated rabbit ileum, tonus; details: without dihydroxyacetone
Method: Fragments of the ileum were suspended in a 75 ml isolated organ tank containing Tyrode's solution maintained at 37° C. by a thermostat and oxygenated by bubbling pure oxygen at a constant rate of flow. The movement of the organ were recorded by means of a lever on a cylinder rotating at a known constant speed.

[5] = system: free fatty acids in the plasma; assay: Non-esterified fatty acids in the plasma (DOLE); format: in vivo, rabbit
Method: Doses of 1 and 2 mg of adrenalin were introduced subcutaneously into rabbits weighing 2.5 to 3.5 kg.
FIGS. 8, 9 and 10 show the variation in the percentage of non-esterified fatty acids in the plasma as a function of the time. […]

[6] = system: hemorrhagic shock; assay: Irreversible hemorrhagic shock (WIGGERS) in dogs; details: irreversible shock
Method: These experiments were carried out with dogs. […] Spontaneous reinjection, by progressive circulatory failure, of a quarter of the mass of blood effused during the second hemmorhage, was chosen as the irreversibility criterion. The following parameters were measured: pH, arterial and venous CO2 pressure (with a radiometertype apparatus), lactacidemia, pyruvicemia and glycemia (by the enzymatic method), and kalemia (with a flame photometer). Samples were taken from the dogs before irreversibility, immediately after, one hour 11/2 hours and 2R hours thereafter. The blood pressure was followed by femoral intubation and recorded with an apparatus providing mean arterial bloodpressure readings.

CC(O)C(=O)O (racemic) [sodium lactate, sodium d,l-lactate, reference compound]
action on rhythm of atrium [1]: accelerates the rhythm
rate of phagocytosis [2]: increased
lactacidemia at 30 and 60 minutes after the end of perfusion [3]: tended to return to its initial values

[Cl-].[K+] [Potassium chloride, reference compound]
tonus of the fiber, ordinary effect [4]: increases the tonus of the fiber in a stable manner

CNCC(O)c1ccc(O)c(O)c1 (stereo not drawn) [adrenalin]
proportion of non-esterified fatty acids one hour after injection ([5]; 1 mg of adrenalin, FIG. 9): fell below normal
proportion of non-esterified fatty acids one hour after injection ([5]; 2 mg of adrenalin, FIG. 8): again increased
average proportion of non-esterified fatty acids about 10 to 15 minutes after injection ([5]; 1 or 2 mg of adrenalin, fed rabbits): increased

O=C[C@H](O)[C@@H](O)[C@H](O)[C@H](O)CO [hypertonic glucose, glucose, reference compound]
effect on the blood pressure in hemorrhagic shock [6]: no effect
effect on the blood pressure in hemorrhagic shock ([6]; listed as 30% glucose): none
